Results: PubChem BioAssay AID1259407 (Chemical Carcinogenesis Research Information System (CCRIS), 2018)
Activity calls are given as the source filed them. No rule for the calls is given here.

Tested on: CCRIS mutagenicity, Ames/micronucleus/aberration tests
Assay: CCRIS mutagenicity studies
[1] = Test System: AMES SALMONELLA TYPHIMURIUM, Strain/Indicator: TA100, Metabolic Activation: NONE, Method: STANDARD PLATE
[2] = Test System: AMES SALMONELLA TYPHIMURIUM, Strain/Indicator: TA98, Metabolic Activation: NONE, Method: PREINCUBATION
[3] = Test System: AMES SALMONELLA TYPHIMURIUM, Strain/Indicator: TA100, Metabolic Activation: NONE, Method: PREINCUBATION
[4] = Test System: AMES SALMONELLA TYPHIMURIUM, Strain/Indicator: TA1535, Metabolic Activation: NONE, Method: PREINCUBATION

SMILES: Nc1nc(Cl)cc(Cl)n1
- mutagenic call (Test System: AMES SALMONELLA TYPHIMURIUM, Strain/Indicator: TA98, Metabolic Activation: HAMSTER, LIVER, S-9, AROCLOR 1254, Method: STANDARD PLATE): inactive; negative
- mutagenic call (Test System: AMES SALMONELLA TYPHIMURIUM, Strain/Indicator: TA98, Metabolic Activation: NONE, Method: STANDARD PLATE): inactive; negative
- mutagenic call (Test System: AMES SALMONELLA TYPHIMURIUM, Strain/Indicator: TA98, Metabolic Activation: RAT, LIVER, S-9, AROCLOR 1254, Method: STANDARD PLATE): inactive; negative
- mutagenic call (Test System: AMES SALMONELLA TYPHIMURIUM, Strain/Indicator: TA100, Metabolic Activation: HAMSTER, LIVER, S-9, AROCLOR 1254, Method: STANDARD PLATE): inactive; negative
- mutagenic call [1]: inactive; negative
- mutagenic call (Test System: AMES SALMONELLA TYPHIMURIUM, Strain/Indicator: TA100, Metabolic Activation: RAT, LIVER, S-9, AROCLOR 1254, Method: STANDARD PLATE): inactive; negative
- mutagenic call (Test System: AMES SALMONELLA TYPHIMURIUM, Strain/Indicator: TA1535, Metabolic Activation: HAMSTER, LIVER, S-9, AROCLOR 1254, Method: STANDARD PLATE): inactive; negative
- mutagenic call (Test System: AMES SALMONELLA TYPHIMURIUM, Strain/Indicator: TA1535, Metabolic Activation: NONE, Method: STANDARD PLATE): inactive; negative
- mutagenic call (Test System: AMES SALMONELLA TYPHIMURIUM, Strain/Indicator: TA1535, Metabolic Activation: RAT, LIVER, S-9, AROCLOR 1254, Method: STANDARD PLATE): inactive; negative
- mutagenic call (Test System: AMES SALMONELLA TYPHIMURIUM, Strain/Indicator: TA1537, Metabolic Activation: HAMSTER, LIVER, S-9, AROCLOR 1254, Method: STANDARD PLATE): inactive; negative
- mutagenic call (Test System: AMES SALMONELLA TYPHIMURIUM, Strain/Indicator: TA1537, Metabolic Activation: NONE, Method: STANDARD PLATE): inactive; negative
- mutagenic call (Test System: AMES SALMONELLA TYPHIMURIUM, Strain/Indicator: TA1537, Metabolic Activation: RAT, LIVER, S-9, AROCLOR 1254, Method: STANDARD PLATE): inactive; negative
- mutagenic call (Test System: AMES SALMONELLA TYPHIMURIUM, Strain/Indicator: TA1538, Metabolic Activation: HAMSTER, LIVER, S-9, AROCLOR 1254, Method: STANDARD PLATE): inactive; negative
- mutagenic call (Test System: AMES SALMONELLA TYPHIMURIUM, Strain/Indicator: TA1538, Metabolic Activation: NONE, Method: STANDARD PLATE): inactive; negative
- mutagenic call (Test System: AMES SALMONELLA TYPHIMURIUM, Strain/Indicator: TA1538, Metabolic Activation: RAT, LIVER, S-9, AROCLOR 1254, Method: STANDARD PLATE): inactive; negative
- mutagenic call (Test System: MOUSE LYMPHOMA, Strain/Indicator: L5178Y (TK+/TK-), Metabolic Activation: NONE, Method: SUSPENSION/PLATE): active; positive. reevaluation of results: positive
- mutagenic call (Test System: MOUSE LYMPHOMA, Strain/Indicator: L5178Y (TK+/TK-), Metabolic Activation: RAT, LIVER, S-9, AROCLOR 1254, Method: SUSPENSION/PLATE): active; positive. reevaluation of results: inconclusive

SMILES: O=[N+]([O-])c1cc([N+](=O)[O-])c2ccccc2c1
- mutagenic call (Test System: AMES SALMONELLA TYPHIMURIUM, Strain/Indicator: TA98, Metabolic Activation: HAMSTER, LIVER, S-9, AROCLOR 1254 (30%), Method: PREINCUBATION): active; positive
- mutagenic call [2]: active; positive
- mutagenic call (Test System: AMES SALMONELLA TYPHIMURIUM, Strain/Indicator: TA98, Metabolic Activation: RAT, LIVER, S-9, AROCLOR 1254 (30%), Method: PREINCUBATION): active; positive
- mutagenic call (Test System: AMES SALMONELLA TYPHIMURIUM, Strain/Indicator: TA100, Metabolic Activation: HAMSTER, LIVER, S-9, AROCLOR 1254 (30%), Method: PREINCUBATION): active; positive
- mutagenic call [3]: active; positive
- mutagenic call (Test System: AMES SALMONELLA TYPHIMURIUM, Strain/Indicator: TA100, Metabolic Activation: RAT, LIVER, S-9, AROCLOR 1254 (30%), Method: PREINCUBATION): active; positive

SMILES: CC(C)Oc1ccc(Nc2ccccc2)cc1
- mutagenic call (End Point: IN VITRO CHROMOSOMAL ABERRATIONS, Test System: CHINESE HAMSTER LUNG CELLS (CHL), Metabolic Activation: RAT, LIVER, S-9, KC-400): inactive; negative; authors describe results as inconclusive
- mutagenic call (End Point: IN VITRO CHROMOSOMAL ABERRATIONS, Test System: CHINESE HAMSTER OVARY CELLS (CHO), Metabolic Activation: NONE): inactive; negative
- mutagenic call (End Point: IN VITRO CHROMOSOMAL ABERRATIONS, Test System: CHINESE HAMSTER OVARY CELLS (CHO), Metabolic Activation: RAT, LIVER, S-9, AROCLOR 1254): inactive; negative
- mutagenic call (End Point: IN VITRO CHROMOSOMAL ABERRATIONS, Test System: CHO-LB CELLS, Metabolic Activation: NONE): inactive; negative
- mutagenic call (End Point: IN VITRO CHROMOSOMAL ABERRATIONS, Test System: CHO-LB CELLS, Metabolic Activation: RAT, LIVER, S-9, AROCLOR 1254): inactive; negative
- mutagenic call (Test System: AMES SALMONELLA TYPHIMURIUM, Strain/Indicator: TA97, Metabolic Activation: HAMSTER, LIVER, S-9, AROCLOR 1254 (10 OR 30%), Method: PREINCUBATION): inactive; negative
- mutagenic call (Test System: AMES SALMONELLA TYPHIMURIUM, Strain/Indicator: TA97, Metabolic Activation: NONE, Method: PREINCUBATION): inactive; negative
- mutagenic call (Test System: AMES SALMONELLA TYPHIMURIUM, Strain/Indicator: TA97, Metabolic Activation: RAT, LIVER, S-9, AROCLOR 1254 (10 OR 30%), Method: PREINCUBATION): inactive; negative
- mutagenic call (Test System: AMES SALMONELLA TYPHIMURIUM, Strain/Indicator: TA98, Metabolic Activation: HAMSTER, LIVER, S-9, AROCLOR 1254 (10 OR 30%), Method: PREINCUBATION): inactive; negative
- mutagenic call [2]: inactive; negative
- mutagenic call (Test System: AMES SALMONELLA TYPHIMURIUM, Strain/Indicator: TA98, Metabolic Activation: RAT, LIVER, S-9, AROCLOR 1254 (10 OR 30%), Method: PREINCUBATION): inactive; negative
- mutagenic call (Test System: AMES SALMONELLA TYPHIMURIUM, Strain/Indicator: TA100, Metabolic Activation: HAMSTER, LIVER, S-9, AROCLOR 1254 (10 OR 30%), Method: PREINCUBATION): inactive; negative
- mutagenic call [3]: inactive; negative
- mutagenic call (Test System: AMES SALMONELLA TYPHIMURIUM, Strain/Indicator: TA100, Metabolic Activation: RAT, LIVER, S-9, AROCLOR 1254 (10 OR 30%), Method: PREINCUBATION): inactive; negative
- mutagenic call (Test System: AMES SALMONELLA TYPHIMURIUM, Strain/Indicator: TA1535, Metabolic Activation: HAMSTER, LIVER, S-9, AROCLOR 1254 (10 OR 30%), Method: PREINCUBATION): inactive; negative
- mutagenic call [4]: inactive; negative
- mutagenic call (Test System: AMES SALMONELLA TYPHIMURIUM, Strain/Indicator: TA1535, Metabolic Activation: RAT, LIVER, S-9, AROCLOR 1254 (10 OR 30%), Method: PREINCUBATION): inactive; negative

SMILES: O=NN(c1ccc([N+](=O)[O-])cc1)C1OC[C@@H](O)[C@H](O)[C@@H]1O (some centres not stated)
- mutagenic call [1]: active; positive

SMILES: O=[N+]([O-])c1cc(-c2ccccc2)cc([N+](=O)[O-])c1O
- mutagenic call [2]: active; positive

SMILES: CC(=O)O[C@H]1[C@H](OC23C=C(C)C4(CC4)C(C)(O)C2C(=O)C(C)(C)C3)O[C@H](CO)[C@@H](OC(=O)/C=C/c2ccc(O)cc2)[C@@H]1O (some centres not stated)
- mutagenic call [2]: active; positive
- mutagenic call [3]: active; positive

SMILES: C(CCOCC1CO1)COCC1CO1 (configuration not stated)
- mutagenic call (Test System: AMES SALMONELLA TYPHIMURIUM, Strain/Indicator: TA100, Metabolic Activation: HAMSTER, LIVER, S-9, AROCLOR 1254 (10%), Method: PREINCUBATION): active; positive
- mutagenic call [3]: active; positive
- mutagenic call (Test System: AMES SALMONELLA TYPHIMURIUM, Strain/Indicator: TA100, Metabolic Activation: RAT, LIVER, S-9, AROCLOR 1254 (10%), Method: PREINCUBATION): active; positive
- mutagenic call (Test System: AMES SALMONELLA TYPHIMURIUM, Strain/Indicator: TA1535, Metabolic Activation: HAMSTER, LIVER, S-9, AROCLOR 1254 (10%), Method: PREINCUBATION): active; positive
- mutagenic call [4]: active; positive
- mutagenic call (Test System: AMES SALMONELLA TYPHIMURIUM, Strain/Indicator: TA1535, Metabolic Activation: RAT, LIVER, S-9, AROCLOR 1254 (10%), Method: PREINCUBATION): active; positive

SMILES: COc1ccc2c(c1)-c1nn(CCCN(C)C)c3ccc([N+](=O)[O-])c(c13)N2
- mutagenic call (Test System: Mouse lymphoma, Strain/Indicator: L5178Y (tk+/tk-), Metabolic Activation: None, Method: Suspension/plate): active; positive
- mutagenic call (Test System: Mouse lymphoma, Strain/Indicator: L5178Y (tk+/tk-), Metabolic Activation: Rat, Liver, S-9, Aroclor 1254, Method: Suspension/plate): active; positive
